Data as given in PubChem BioAssay AID1963979 (Molecular Pharmacology Branch, DTP, NCI, 2024).
Each block holds one compound with its values, some of them ahead of it.

Test system: 361931-004-R-J1-PDC multicell spheroid viability
Experiment: Anticancer human tumor 361931-004-R-J1-PDC patient-derived colon adenocarcinoma cell line growth inhibition [PI3K]
Details: for IC50: curve of first compound; for viability, T/C: stronger effect = lower value
In short: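 Combination activity was assessed by viability in multicellular tumor spheroids carrying HUVEC and MSC components. Agents were tested with PI3K inhibitors from a Cmax-based top dose (or 10 microM) downward in half-log increments.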

[1] = second compound 0.0316 µM, first compound 0.0316 µM
[2] = second compound 0.0316 µM, first compound 0.1 µM
[3] = second compound 0.1 µM, first compound 0.0316 µM
[4] = second compound 0.1 µM, first compound 0.1 µM
[5] = second compound 0.316 µM, first compound 0.0316 µM
[6] = second compound 0.316 µM, first compound 0.1 µM
[7] = second compound 1 µM, first compound 0.0316 µM
[8] = second compound 1 µM, first compound 0.1 µM
[9] = second compound 3.16 µM, first compound 0.0316 µM
[10] = second compound 3.16 µM, first compound 0.1 µM
[11] = second compound 10 µM, first compound 0.0316 µM
[12] = second compound 10 µM, first compound 0.1 µM
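Note: spheroids exposed to agents for seven days before readout.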

IC50 (second compound 0.0316 µM): > 10000 nM
IC50 (second compound 0.1 µM): > 10000 nM
IC50 (second compound 0.316 µM): > 10000 nM
IC50 (second compound 1 µM): > 10000 nM
IC50 (second compound 3.16 µM): 4930 nM
IC50 (second compound 10 µM): 410 nM
Structure (SMILES): C[C@@H](NC(=O)c1ncnc(N)c1Cl)c1ncc(C(=O)Nc2cc(C(F)(F)F)c(Cl)cn2)s1 + Cc1nc(NC(=O)N2CCCC2C(N)=O)sc1-c1ccnc(C(C)(C)C(F)(F)F)c1
viability, T/C [1]: 104%
viability, T/C [2]: 106%
viability, T/C (second compound 0.0316 µM, first compound 0.316 µM): 80.8%
viability, T/C (second compound 0.0316 µM, first compound 1 µM): 97.3%
viability, T/C (second compound 0.0316 µM, first compound 3.16 µM): 92.9%
viability, T/C (second compound 0.0316 µM, first compound 10 µM): 85.5%
viability, T/C [3]: 110%
viability, T/C [4]: 104%
viability, T/C (second compound 0.1 µM, first compound 0.316 µM): 89.1%
viability, T/C (second compound 0.1 µM, first compound 1 µM): 106%
viability, T/C (second compound 0.1 µM, first compound 3.16 µM): 92.9%
viability, T/C (second compound 0.1 µM, first compound 10 µM): 80.5%
viability, T/C [5]: 102%
viability, T/C [6]: 100%
viability, T/C (second compound 0.316 µM, first compound 0.316 µM): 99.3%
viability, T/C (second compound 0.316 µM, first compound 1 µM): 89%
viability, T/C (second compound 0.316 µM, first compound 3.16 µM): 101%
viability, T/C (second compound 0.316 µM, first compound 10 µM): 78%
viability, T/C [7]: 104%
viability, T/C [8]: 95.8%
viability, T/C (second compound 1 µM, first compound 0.316 µM): 93.3%
viability, T/C (second compound 1 µM, first compound 1 µM): 88.8%
viability, T/C (second compound 1 µM, first compound 3.16 µM): 84.2%
viability, T/C (second compound 1 µM, first compound 10 µM): 60.9%
viability, T/C [9]: 89.9%
viability, T/C [10]: 84.8%
viability, T/C (second compound 3.16 µM, first compound 0.316 µM): 76.1%
viability, T/C (second compound 3.16 µM, first compound 1 µM): 70.4%
viability, T/C (second compound 3.16 µM, first compound 3.16 µM): 67.1%
viability, T/C (second compound 3.16 µM, first compound 10 µM): 31%
viability, T/C [11]: 77.8%
viability, T/C [12]: 59%
viability, T/C (second compound 10 µM, first compound 0.316 µM): 55.6%
viability, T/C (second compound 10 µM, first compound 1 µM): 41.7%
viability, T/C (second compound 10 µM, first compound 3.16 µM): 22%
viability, T/C (second compound 10 µM, first compound 10 µM): 3.55%

IC50 (second compound 0.0316 µM): > 100 nM
IC50 (second compound 0.1 µM): > 100 nM
IC50 (second compound 0.316 µM): > 100 nM
IC50 (second compound 1 µM): > 100 nM
IC50 (second compound 3.16 µM): > 100 nM
IC50 (second compound 10 µM): 48.4 nM
Structure (SMILES): Cn1ncnc1[C@H]1c2n[nH]c(=O)c3cc(F)cc(c23)N[C@@H]1c1ccc(F)cc1 + Cc1nc(NC(=O)N2CCCC2C(N)=O)sc1-c1ccnc(C(C)(C)C(F)(F)F)c1
viability, T/C (second compound 0.0316 µM, first compound 0.000316 µM): 98%
viability, T/C (second compound 0.0316 µM, first compound 0.001 µM): 93.1%
viability, T/C (second compound 0.0316 µM, first compound 0.00316 µM): 97.3%
viability, T/C (second compound 0.0316 µM, first compound 0.01 µM): 93%
viability, T/C [1]: 79.8%
viability, T/C [2]: 85.3%
viability, T/C (second compound 0.1 µM, first compound 0.000316 µM): 109%
viability, T/C (second compound 0.1 µM, first compound 0.001 µM): 93.6%
viability, T/C (second compound 0.1 µM, first compound 0.00316 µM): 94.5%
viability, T/C (second compound 0.1 µM, first compound 0.01 µM): 93.2%
viability, T/C [3]: 86.5%
viability, T/C [4]: 76.8%
viability, T/C (second compound 0.316 µM, first compound 0.000316 µM): 98.2%
viability, T/C (second compound 0.316 µM, first compound 0.001 µM): 86.1%
viability, T/C (second compound 0.316 µM, first compound 0.00316 µM): 81.7%
viability, T/C (second compound 0.316 µM, first compound 0.01 µM): 81.8%
viability, T/C [5]: 83.5%
viability, T/C [6]: 80.8%
viability, T/C (second compound 1 µM, first compound 0.000316 µM): 87.3%
viability, T/C (second compound 1 µM, first compound 0.001 µM): 73.4%
viability, T/C (second compound 1 µM, first compound 0.00316 µM): 84.5%
viability, T/C (second compound 1 µM, first compound 0.01 µM): 79.4%
viability, T/C [7]: 90.1%
viability, T/C [8]: 70.3%
viability, T/C (second compound 3.16 µM, first compound 0.000316 µM): 70.4%
viability, T/C (second compound 3.16 µM, first compound 0.001 µM): 81.8%
viability, T/C (second compound 3.16 µM, first compound 0.00316 µM): 77.4%
viability, T/C (second compound 3.16 µM, first compound 0.01 µM): 66.9%
viability, T/C [9]: 72.6%
viability, T/C [10]: 62.2%
viability, T/C (second compound 10 µM, first compound 0.000316 µM): 62.2%
viability, T/C (second compound 10 µM, first compound 0.001 µM): 54.5%
viability, T/C (second compound 10 µM, first compound 0.00316 µM): 54%
viability, T/C (second compound 10 µM, first compound 0.01 µM): 56.6%
viability, T/C [11]: 47.9%
viability, T/C [12]: 49.2%
